Test results reported in ChEMBL document CHEMBL5537149, “Design, synthesis, and lead optimization of piperazinyl-pyrimidine analogues as potent small molecules targeting the viral capping machinery of Chikungunya virus” (Eur J Med Chem, 2024).
Values after ≈ are worked out from the molar mass of the structure shown. Active and inactive are the calls of the source. The rule behind the calls is not given here.

Assays:
Zika virus = experiment: Antiviral activity against Zika virus infected in African green monkey Vero cells assessed as reduction in virus induced cell death; assay type: functional, organism-based
Semliki Forest virus = experiment: Antiviral activity against Semliki forest virus infected in African green monkey Vero cells assessed as reduction in virus induced cell death; assay type: functional, organism-based
Enterovirus = experiment: Antiviral activity against Human enterovirus 71 infected in African green monkey Vero cells assessed as reduction in virus induced cell death; assay type: functional, organism-based
Chikungunya virus [1] = experiment: Antiviral activity against Chikungunya virus infected in African green monkey Vero cells assessed as reduction in viral induced cell death incubated for 5 days by MTS reagent based absorbance method; assay type: functional, organism-based; conditions: 120 h
Sindbis virus = experiment: Antiviral activity against Sindbis virus HRsp infected in African green monkey Vero cells assessed as reduction in virus induced cell death; assay type: functional, organism-based
[2] = Aqueous solubility of compound at pH 7.4 by HPLC analysis; assay type: physicochemical
hERG (KCNH2) = hERG (KCNH2) (Homo sapiens, UniProt Q12809); experiment: Inhibition of hERG in Xenopus laevis Oocytes upto 30 uM incubated for 10 mins by patch-clamp method relative to control; assay type: cell-based, Oocyte; conditions: Xenopus laevis oocytes expressing hERG
Chain of hERG (KCNH2) (Q12809 whole entry): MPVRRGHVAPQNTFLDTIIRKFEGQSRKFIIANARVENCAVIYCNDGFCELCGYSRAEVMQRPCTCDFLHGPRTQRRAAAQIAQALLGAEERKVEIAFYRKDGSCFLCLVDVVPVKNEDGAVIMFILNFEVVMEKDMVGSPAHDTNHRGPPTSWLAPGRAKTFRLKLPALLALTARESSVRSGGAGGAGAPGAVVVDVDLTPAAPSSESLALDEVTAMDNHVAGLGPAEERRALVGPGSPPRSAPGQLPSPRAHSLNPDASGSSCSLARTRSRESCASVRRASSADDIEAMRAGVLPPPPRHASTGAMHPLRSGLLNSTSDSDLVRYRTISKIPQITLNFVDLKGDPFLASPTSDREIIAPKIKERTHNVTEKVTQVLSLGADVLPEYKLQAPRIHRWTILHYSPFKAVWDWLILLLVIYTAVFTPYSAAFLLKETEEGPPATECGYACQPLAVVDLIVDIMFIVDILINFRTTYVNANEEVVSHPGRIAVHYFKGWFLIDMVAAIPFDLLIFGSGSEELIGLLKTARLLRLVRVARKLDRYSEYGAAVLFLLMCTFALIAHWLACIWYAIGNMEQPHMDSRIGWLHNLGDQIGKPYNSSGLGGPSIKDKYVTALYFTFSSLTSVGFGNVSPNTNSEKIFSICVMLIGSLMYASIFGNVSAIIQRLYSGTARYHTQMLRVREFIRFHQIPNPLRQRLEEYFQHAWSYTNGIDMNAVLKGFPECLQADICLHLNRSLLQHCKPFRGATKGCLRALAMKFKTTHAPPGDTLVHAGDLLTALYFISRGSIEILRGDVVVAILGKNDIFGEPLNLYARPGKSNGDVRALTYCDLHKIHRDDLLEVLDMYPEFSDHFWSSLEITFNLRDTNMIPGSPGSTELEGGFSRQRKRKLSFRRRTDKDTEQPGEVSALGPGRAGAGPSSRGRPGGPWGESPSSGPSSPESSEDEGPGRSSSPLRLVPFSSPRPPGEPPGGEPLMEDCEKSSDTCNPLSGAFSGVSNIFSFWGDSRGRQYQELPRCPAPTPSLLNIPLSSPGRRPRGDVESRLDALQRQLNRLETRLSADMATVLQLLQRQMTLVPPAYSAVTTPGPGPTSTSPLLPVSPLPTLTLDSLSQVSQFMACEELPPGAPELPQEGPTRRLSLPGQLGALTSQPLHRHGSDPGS

[3] = Selectivity index, ratio of CC50 for cytotoxicity against African green monkey Vero cells to EC50 for antiviral activity against Chikungunya virus infected in African green monkey Vero cells assessed as reduction in viral induced cell death; assay type: toxicity, cell-based; conditions: read-out: Ratio CC50/EC50
Chikungunya virus [4] = experiment: (§1) Antiviral activity against Chikungunya virus 899 infected in African green monkey Vero cells assessed as log10 reduction in intracellular viral level at 2.22 uM preincubated for 2 hrs with subsequent viral infected followed by media replacement with compound and measured after 48 hrs by qRT-PCR analysis; assay type: functional; conditions: time 50 hrs
[5] = Metabolic stability in human liver microsomes assessed as half-life preincubated for 5 mins followed by NADPH addition and measured upto 60 mins by HPLC-MS/MS analysis; assay type: ADME, Microsome; conditions: time < 65 min
Chikungunya virus [6] = experiment: Antiviral activity against Chikungunya virus 899 infected in African green monkey Vero cells assessed as reduction in viral RNA replication preincubated for 2 hrs with subsequent viral infected followed by media replacement with compound and measured after 48 hrs by qRT-PCR analysis; assay type: functional, organism-based; conditions: dose 0.25-60 µM, time 50.0 hrs
Caco-2 [7] = experiment: Induction of apoptosis in human Caco-2 cells assessed as increase in caspase-3 expression at 6.25 to 100 uM incubated for 72 hrs by Western blot analysis; assay type: toxicity, cell-based; conditions: caco-2, 72 h, dose 6.25-100 µM
Chikungunya virus [8] = experiment: as §1, with “60” for “2.22”; assay type: functional; conditions: time 50 hrs
[9] = Cytotoxicity against African green monkey Vero cells assessed as reduction in overall metabolic activity incubated for 5 days by MTS reagent based absorbance method; assay type: toxicity, cell-based; conditions: chlorocebus sabaeus, time 5 day
Chikungunya virus [10] = experiment: Fold resistance , ratio of EC50 for antiviral activity against CHVB-resistant Chikungunya virus infected in African green monkey Vero cells to EC50 for antiviral activity against wildtype Chikungunya virus 899 infected in African green monkey Vero cells; assay type: functional
Caco-2 [11] = experiment: Induction of apoptosis in human Caco-2 cells assessed as increase in PARP expression at 6.25 to 100 uM incubated for 72 hrs by Western blot analysis; assay type: toxicity, cell-based; conditions: caco-2, 72 h, dose 6.25-100 µM
Caco-2 [12] = experiment: Cytotoxicity against human Caco-2 cells incubated for 24 to 72 hrs by MTT assay; assay type: toxicity, cell-based; conditions: time 24-72 hrs
[13] = Metabolic stability in human liver microsomes assessed as parent compound remaining preincubated for 5 mins followed by NADPH addition and measured upto 60 mins by HPLC-MS/MS analysis; assay type: ADME, Microsome; conditions: time < 65 min, read-out: Stability

Structure (SMILES)	Activity (Zika virus)	Activity (Semliki Forest virus)	Activity (Enterovirus)	EC50 (Chikungunya virus [1]) [µM]	Activity (Sindbis virus)	solubility [2] [µM]	inhibition at 10 min, up to 30 µM (hERG (KCNH2)) [%]	selectivity ratio [3]	log(activity) (Chikungunya virus [4])	half-life [5] [h]	Activity (Chikungunya virus [6])	Activity (Caco-2 [7])	log(activity) (Chikungunya virus [8])	CC50 at 120 h [9] [µM]	Ratio EC50 (Chikungunya virus [10])	Activity (Caco-2 [11])	Activity (Caco-2 [12])	remaining at 1 h [13] [%]
CCCS(=O)(=O)N1CCN(c2nc(C)cc(NCC)n2)CC1	inactive	inactive	inactive	70	inactive	> 120	–	–	–	–	–	–	–	–	–	–	–	–
O=S(=O)(c1ccc(F)cc1)N1CCN(c2ncccn2)CC1	inactive	inactive	inactive	310	inactive	64 (≈ 20.6 µg/mL)	9.63	–	–	–	–	–	–	–	–	–	–	–
CCNc1nc(C)cc(N2CCN(C(=O)c3ccc(Br)cc3)CC2)n1	–	–	–	0.6	–	> 120	–	> 159	~4.5	> 1	Dose-Dependent Effect	Non-Toxic	>5	> 96	8.9	Non-Toxic	Non-Toxic	–
CCNc1nc(C)cc(N2CCN(C(=O)c3ccc([N+](=O)[O-])cc3)CC2)n1	–	–	–	0.91	–	> 120	–	> 110	–	> 1	Dose-Dependent Effect	Non-Toxic	–	> 100	14	Non-Toxic	Non-Toxic	100
CCNc1nc(C)cc(N2CCN(C(=O)c3cccc([N+](=O)[O-])c3)CC2)n1	–	–	–	0.7	–	> 120	–	> 143	~4.5	> 1	Dose-Dependent Effect	Non-Toxic	–	> 100	13.3	Non-Toxic	Non-Toxic	–
CCNc1nc(C)cc(N2CCN(C(=O)c3ccc(F)cc3)CC2)n1	inactive	inactive	inactive	1.52	inactive	> 120	–	109	–	> 1	–	Non-Toxic	–	165	–	Non-Toxic	Non-Toxic	–
CCNc1nc(C)cc(N2CCN(C(=O)c3cc(Cl)cc(Cl)c3)CC2)n1	–	–	–	0.47	–	108 (≈ 42.6 µg/mL)	–	173	–	> 1	Dose-Dependent Effect	Non-Toxic	–	80	9.7	Non-Toxic	Non-Toxic	–
CCCC(=O)N1CCN(c2nc(C)cc(NCC)n2)CC1	inactive	inactive	inactive	67	inactive	> 120	–	–	–	–	–	–	–	–	–	–	–	–
